# According to US4098823A, “Monospiroalkyl derivatives of prostaglandins” (Miles Laboratories, Inc., priority 1977, dated 1978):
# Experiments:
# [1] = system: Human Platelet Aggregation; experiment: Inhibition of Human Platelet Aggregation; type: cell-based; details: in vitro
# Method: The ability of test compounds to inhibit platelet aggregation was determined by a modification of the turbidometric technique of Born (Nature, 194:927 [1962]). Blood was collected from human volunteers who had not ingested aspirin or aspirin-containing products within the preceding two weeks in heparinized containers and was allowed to settle for one (1) hour. The platelet rich plasma (prp) supernates were collected and cooled. Siliconized glassware was used throughout.
# In a representative assay 1.9 ml of PRP and 0.2 ml of test compound at the appropriate concentrations (0.001 to 100 mcgm), or 0.2 ml of distilled water (control procedure) were placed in sample cuvettes. The cuvettes were placed in a 37° C incubation block for 15 minutes, and then in a spectrophotometer linked to a strip chart recorder. After 30-60 seconds, 0.2 ml of a solution, prepared by diluting a calf-skin collagen solution 1:9 with Tyrodes' Solution, was added to each cuvette. Platelet aggregation was evidenced by a decrease in optical density.
# An ED50 value was then determined graphically.
# Gastric Secretion = experiment: Effects on Gastric Secretion in the Rat; type: in vivo; details: pylorus-ligated rat, subcutaneous, 2 x 1.5 mg/kg (total 3.0 mg/kg), 4 hours
# Procedure, shortened: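 Rats (150-200 g, groups of six) fasted 48 h, pylorus ligated under ether. Compounds given s.c. in phosphate buffer pH 7.38 at 1.5 mg/kg immediately post-surgery and 2 h later (total 3.0 mg/kg). At 4 h, gastric volume and total acid (titration with 0.1 N NaOH, mEq) compared with vehicle controls by t-test.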
# Femoral Blood Flow = experiment: Effects on Femoral Blood Flow in the Dog; type: in vivo; details: anesthetized mongrel dog, intraarterial, 0.001 to 10 mcg
# Method: The peripheral vasodilator or constrictor effects of these compounds were determined in mongrel dogs of either sex, weighing between 10 and 20 kg anesthestized intravenously with 35 mg/kg of sodium pentobarbital. An external iliac artery was dissected immediately above the femoral arch for a length of approximately 5 cm and a previously calibrated, non-connulating electromagnetic flowmeter sensor with a lumen between 2.5 and 3.5 mm was placed snugly around the vessel. Cannulas were placed in a branch of the artery arising distally to the location of the flowmeter sensor for intraarterial drug administrations, in the contralateral femoral artery for systemic blood pressure recordings and in the trachea for artificial respiration with room air. Femoral blood flow and systemic blood pressure were continously recorded with an electromagnetic flowmeter and pressure tranducer, respectively.
# After an adequate control period, test compounds were injected intraarterially at one log-spaced doses ranging from 0.001 to 10 mcg., in a volume of 0.5 ml and at 5 to 10 minute intervals. Maximum changes in bloodflow, as well as any variations in blood pressure, were tabulated for each dose in absolute values (ml/min. and mmHg). The calculations were made taking as control values those existing immediately before administration of each dose. The direction of the observed change (plus for increase and minus for decrease) was also noted. The dose changing bloodflow by 100 ml/min (ED100 ml/min) was calculated graphically and was used for scoring activity as follows: […]
# [2] = system: Blood Pressure and Heart Rate; experiment: Effects on Blood Pressure and Heart Rate in the Anesthetized Cat; type: in vivo; details: Felis catus, intravenous, 0.01 to 10.0 mcg/kg, scored only on hypotension, read-out: Test D Activity Value (ED50 mmHg, decrease in blood pressure)
# Procedure, shortened: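 Cats of either sex anesthetized with pentobarbital sodium (35 mg/kg i.v.) plus barbital sodium (100 mg/kg i.v.), femoral arterial pressure and ECG-driven heart rate recorded. Compound given i.v. at one-log increasing doses, 0.01–10.0 mcg/kg, every 10 min. ED50 mmHg (dose lowering blood pressure by 50 mmHg) derived graphically from hypotension.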
smiles,measurement,setting,value
"COC(=O)CCCCCC[C@H]1C(=O)C[C@@H](O)[C@@H]1/C=C/[C@H](O)C1CC2(CCC2)C1 [TR-4120, Methyl 7-{3R-hydroxy-5-oxo-2R-[3R-hydroxy-3-(spiro[3.3]hept-2-yl)-1E-propenyl]cyclopent-1R-yl}heptanoate]","inhibition of aggregation of human platelets, in words",[1],inhibit aggregation of platelets
same,"Test B Activity Value (% decrease in acidity, inhibition of gastric secretion)",Gastric Secretion,"2 (26-50, significant)"
same,"Test C Activity Value (ED100 ml/min, increase in femoral blood flow)",Femoral Blood Flow,0 (>10.0)
same,ED (50 mmHg),[2],> 0.01 mg/kg
